In a melting point compilation (Tetko et al.; mined from patent text by program, amines drawn as free bases though some values may be those of a salt):

SMILES | melting point
COc1ccccc1CNc1nccc2ccccc12 | 111 to 113 °C
CC(C)(C)OC(=O)N1CCc2[nH]c3cccc(Br)c3c2CC1 | 223 to 225 °C
CCCc1cccc(-c2nc(C(C)C)n(C)n2)n1 | 48.6 °C
COc1cc2c(cc1O)C(=O)CCCC2 | 115 to 116 °C
COc1ccc(C2=NC[C@@H](OC(=O)Nc3ccccc3)[C@H](c3ccccc3)O2)cc1 (racemic) | 132 °C
NC(=O)c1ccc(-c2ccc(-c3ccn(C(CC(=O)O)C(=O)NC(CO)Cc4ccccc4)c3)cc2)cc1 (stereo unspecified) | 218 to 220 °C
CNC(=O)c1cnc(SC)nc1Nc1ccc2[nH]ncc2c1 | 259 to 261 °C
C1=C(c2ccccc2)CCN(C2CC=C(c3ccccn3)CC2)C1 (stereo unspecified) | 143 to 144 °C
O=C(Nc1ccc(Cl)cc1C(=NO)c1ccccc1)C(F)Cl (stereo unspecified) | 110 to 129 °C
Cc1c(C(=O)Nc2ccc(N3CCC(N4CCCCC4)CC3)c(C#N)c2)cnn1-c1ccc(Cl)cc1 | 252 °C
Cc1noc2cc3c(cc12)C1(CO3)C(=O)Nc2ccccc21 (stereo unspecified) | 226 to 227 °C
Cn1nnc2c(N3CCOCC3)nc(Cl)nc21 | 168 °C
CN1C(=O)CC[C@]2(C)c3ccc(-c4c5ccccc5cc5ccccc45)cc3CC[C@@H]12 | 95 to 110 °C
COc1cc(C)cc2c1C(N1CC[N+]([O-])(C(=O)Cc3ccncc3)CC1)c1ncc(Br)cc1CC2 (single isomer, unassigned; (-)) | 111 to 116 °C
CNC(=O)N(C(=O)Nc1ccccc1)c1ccccc1 | 145 to 147 °C
O=C(NC(NC(=S)Nc1cccnc1)C(Cl)(Cl)Cl)c1ccc(I)cc1 (stereo unspecified) | 197 to 199 °C
CCCCc1nc(S)c(C(=O)OCC)n1Cc1cc2c(cc1Cl)OCO2 | 114 °C
CC1(C)CC(=O)OC(C(Cl)(Cl)Cl)C1Br (stereo unspecified) | 98.5 to 99.5 °C
CC1(C(=O)O)CCc2c(C(=O)c3ccc(Cl)cc3)cccc21 (stereo unspecified) | 146 to 150 °C
O=C(OC1C2CN(Cc3ccccc3)CC1CN(C(=O)c1ccc([N+](=O)[O-])cc1)C2)c1ccccc1 (stereo unspecified) | 180 °C
COc1ccc(I)c(CC(=O)O)c1 | 134 °C
COc1ccc(C(=O)c2c(-c3ccc(OC)cc3)sc3cc(OC)ccc23)cc1 | 119 to 120 °C

SMILES | melting point
O=c1[nH]c2ncc(-c3ccc4[nH]ncc4c3)nc2n1CC1CCCCC1 | 311 to 313 °C
Nc1ccc(CCN2CCC(NC(=O)c3ccccc3)CC2)cc1 | 193 to 195 °C
CCN(CC)C(=O)N1CCc2cc(S(=O)(=O)N3C(=O)C(NCCC4CCN(C(=O)OC(C)(C)C)CC4)(c4ccccc4Cl)c4cc(Cl)ccc43)ccc21 (stereo unspecified) | 139 °C
COC(=O)C1=C(C)NC(C)=C(c2nc(-c3ccc(CN(C)Cc4ccccc4)cc3)no2)C1c1cccc([N+](=O)[O-])c1 (stereo unspecified) | 192 to 193 °C
O=c1oc(-c2cccc(Cl)c2)cc(O)c1SCCCCc1ccccc1 | 123 to 124 °C
Cc1noc(NS(=O)(=O)c2ccccc2-c2ccc(-c3ncco3)cc2Cn2ccnc2C(C)C)c1C | 184 to 188 °C
CCNC(=O)C(=O)NCC(OCC)OCC | 131 to 132 °C
Nc1cccc(OC2CCCCO2)c1O (stereo unspecified) | 163 to 166 °C
CC#Cc1cc(=O)n2nc(SCCCCCC)sc2n1 | 94 to 97 °C
Cc1nc(CCOc2ccc(N)cc2)oc1-c1ccccc1 | 106 to 107 °C
COCCNc1ncc(-c2cnc3[nH]c(=O)n(CC4CCCCC4)c3n2)cn1 | > 250 °C
Oc1ccc(-c2ccc(O)cc2C#Cc2ccccc2)c(C#Cc2ccccc2)c1 | 187 °C
CC(=O)N(O)C(CS(=O)(=O)c1ccc(-c2cccc(CNC(=O)c3nc4ccccc4c(=O)[nH]3)c2)cc1)C(C)C (stereo unspecified) | 167 to 169 °C
CCOC(=O)c1ncn2c1CN=C(c1ccccc1F)c1cc(Br)ccc1-2 | 200 to 202 °C
CCCCN(CCCC)C(=O)/C=C/c1ccc(Cn2c(-c3ccc(O)cc3)c(C)c3cc(O)ccc32)cc1 | 126 to 128 °C
CCOC(=O)C(=O)c1csc(NC(=O)CCl)n1 | 178 to 180 °C
Cn1nc2c(-c3ccc(Cl)cc3Cl)cccc2c1-n1ccnc1 | 63 to 89 °C
O=CNC1CCCc2sc(Br)cc21 (stereo unspecified) | 104 to 108 °C
O=c1c(Cl)nc2ccc(C(F)(F)F)cc2n1OCc1ccccc1 | 148 to 150 °C
CC(C)COC(=O)Sc1ccc(-c2ccc(C(CCl)NC(=O)c3c(F)cccc3F)cc2)cc1 (racemic) | 171 to 173 °C
Nc1ccc(S(F)(F)(F)(F)F)cc1[N+](=O)[O-] | 132 to 135 °C

Further lines, results first:

melting point | SMILES
> 280 °C | O=C(Cc1ccccc1)Nc1ccc(-c2ccc(C(=O)O)c(=O)[nH]2)cc1
55 to 58 °C | CCN(C(=O)OC(C)(C)C)c1cn(-c2cccnc2)nc1Cl
222 to 224 °C | C#CCN1C(=O)COc2cc(F)c(-n3c(=O)oc4c(c3=O)CCC4)cc21
94 to 96 °C | Cc1c(C)c(C(=O)CCl)c(C)c(C)c1Cl
108 °C | COCc1ccc(N)c(O)c1
146 to 147 °C | COc1ccc(CC#N)cc1S(=O)(=O)NC(C)(C)C
198 to 200 °C | COc1ccc(CNC=C2C(=O)Nc3cc(OC)c(OC)cc32)cc1OC
131 to 132 °C | O=C(c1ccc(-n2cncn2)cc1)N1CCC(NCCc2ccc(Cl)cc2)CC1
229 to 230 °C | COc1ccc2c(n1)c(C=O)c1n2Cc2ccccc2-1
60 to 63 °C | CCC(NC(=O)c1ccccc1)C(=O)OC1CCCCC1 (stereo unspecified)
192 °C | COc1ccc2ccc(N3C(=O)c4ccccc4C3OCC(=O)N3CCOCC3)nc2n1 (stereo unspecified)
> 230 °C | CSc1nn2c(N(C)C)cc(C)nc2c1S(=O)(=O)c1ccc(C)cc1
157 °C | O=C(Nc1ccc(Cl)c(Cl)c1)N(O)Cc1ccccc1
208 to 209 °C | CN(C)c1nc2sc3c(NCc4cccnc4)ncnc3c2c2c1CCC(C)(C)C2
164 to 165 °C | CSC(=NCc1ccc(CCO)cc1)NC#N
129 to 133 °C | COc1cc(C(=O)NS(=O)(=O)c2ccccc2C)ccc1Cc1c(Cl)n(C)c2ccc(CC3CCN(C)C3=O)cc12 (stereo unspecified)
173 °C | CCCCOc1ccc(S(=O)(=O)C2(C(=O)O)CCN(Cc3ccc(OC)cc3)CC2)cc1
152 to 153 °C | Nc1ccc(N=Nc2ccccc2)cc1Cl
121 to 124 °C | COc1ccc(NC(=O)CN2CCC(Cc3ccc(F)cc3)CC2)cc1
40 to 41 °C | COc1ccc(-c2ccc(C)c3occc23)cc1

melting point | SMILES
209 to 211 °C | COCCc1sc2ncnc(N)c2c1-c1ccc(NC(=O)Nc2cc(C(F)(F)F)ccc2F)cc1
162 to 164 °C | O=C1N(Cc2ccc(C(F)(F)F)o2)c2ccccc2C12COc1cc3c(cc12)OCCCO3 (stereo unspecified)
225 to 228 °C | CC(=O)Nc1cccc(C(=O)c2[nH]c3cc(Cl)ccc3c2NC(C)=O)c1
185 to 186 °C | CC(C)(C)c1cc(CP(=O)(O)c2ccccc2)cc(C(C)(C)C)c1O
137 to 138 °C | C/C(=N\OCCN1CCOCC1)[C@H]1CC[C@H]2[C@@H]3CC=C4C[C@@H](O)CC[C@]4(C)[C@H]3CC[C@]12C
193 °C | COc1ccccc1C1C(=O)Nc2cc(C)c(Cl)cc21 (stereo unspecified)
92 to 95 °C | COc1ccc(C2CCN(C(=O)N3CCC(Nc4ccc(CCNC[C@H](O)COc5ccc(O)cc5)cc4)CC3)CC2)cc1OC1CCCC1
217 to 218 °C | CCS(=O)(=O)c1cc2c(c(C(=O)O)c1)OCCO2
202 to 204 °C | O=C(O)[C@@H]1C[C@@H](O)CN1CCO
140 to 141 °C | O=C(O)c1cc2cc(Br)ccc2nc1N[C@H](Cc1ccccc1)C(=O)O
219 to 221 °C | NS(=O)(=O)c1cc(C(=O)Nc2ccccc2)ccc1F
70 to 71 °C | CCCCCCCCCCCCCCc1c[nH]c(C=O)c1
140 to 142 °C | CCOC(=O)c1c(Nc2ccc(F)cc2[N+](=O)[O-])sc2c1CCCC2
173 to 175 °C | COc1cccc(NC(=O)CC23CC4CC(CC(C4)C2)C3)c1C
104 to 105 °C | CC(C)Oc1cc(CCC(=O)NS(C)(=O)=O)n(Cc2ccc(Cl)cc2Cl)n1
154 to 156 °C | Cc1cc2occ(C=O)c(=O)c2cc1C
148 to 149 °C | CCN(CC)CCNC(=O)c1cc(Cl)c(NS(=O)(=O)c2ccc3ccccc3c2)cc1OC
117 to 118 °C | Clc1ccc(-c2cc[nH]c2)cc1
96 to 98 °C | CON(C(=O)c1cccnc1Cl)C1CCCCC1
72 to 74 °C | CN1CCN(c2cccc3ccc(C(=O)NCc4ccc(Cl)cc4)cc23)CC1

melting point | SMILES
110 to 112 °C | CCOC(=O)/C=C/c1ccc(OCOC)c(C)c1OCc1ccc(Cl)cc1Cl
134 °C | Cc1ccc(C(=S)c2ccc(Cl)cc2)cc1
254 °C | COc1ccc(CN2C(=O)C(C)(c3cc(NC(N)=O)ccc3Cl)c3cc(Cl)ccc32)c(OC)c1 (stereo unspecified)
140 °C | CC(C(=O)Nc1ccc(C(=O)c2cccs2)cc1)c1ccccc1 (stereo unspecified)
179 to 181 °C | CCOC(=O)c1cnn(-c2cc(Cl)cc(Cl)c2)c1S(C)(=O)=O
181 to 182 °C | CNCc1ccsc1CC(=O)O
177 to 179 °C | Cc1ccc(N2CN(c3ccccc3)C3=NN=CC3=C2Cl)cc1
67 to 68 °C | CC(C)(CCl)C(=O)COc1ccc(-c2ccc(Cl)cc2)cc1
177 to 180 °C | CN(c1ncnc2[nH]ccc12)C1CCCCC1
54 to 55 °C | BrCCCOc1ccc(Oc2ccccc2)cc1
47 to 49 °C | OCCC1=Cc2ccccc2C1
110 to 112 °C | CN(C(=O)CN(O)C(N)=O)c1cccc(Oc2ccccc2)c1
106 to 107 °C | CCOC(=O)C(=Cc1cccc([N+](=O)[O-])c1)C(=O)C(Cl)(Cl)Cl
156 to 157 °C | CC(=O)c1cc(S(=O)(=O)c2ccccc2)ccc1O
70 to 73 °C | CCCCCCCCCCCc1ccc(F)c(-c2nc(-c3c(F)cccc3F)nn2C)c1
257 to 258 °C | O=C(C(=O)N1CCC(c2nnnn2-c2ccccc2)CC1)c1c[nH]c2c(-n3ccnn3)ncc(F)c12
66 to 68 °C | CCOC(=O)Cc1cccc(N)n1
138 °C | Cc1ccccc1OCC1COC(Cn2ccnc2)(c2ccc(Cl)cc2Cl)O1 (stereo unspecified)
